Measured values as given in ChEMBL document CHEMBL1201862, “PubChem BioAssay data set” (2004).
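All cell lines were grown in 96-well plates and treated with compound for 48 hours. Abbreviation: GI50, concentration required for 50% inhibition of growth.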 Active and inactive are the calls of the source. Rule as the data show it: active = GI50 up to about 1.1 µM and inactive = higher.

How the values were obtained:
Test in all cases: NCI-60 cell line screen, 48 h
[1] = tested on: MOLT-4
[2] = tested on: HCT-15
[3] = tested on: TK-10
[4] = tested on: SNB-19
[5] = tested on: BT-549
[6] = tested on: EKVX
[7] = tested on: OVCAR-3
[8] = tested on: Malme-3M

Compound	GI50 [1]	GI50 [2] [nM]	GI50 [3]	GI50 [4]	GI50 [5]	GI50 [6]	GI50 [7]	GI50 [8]
C=C1C(C)C2C(Cc3ccccc3)NC(=O)C23C(OC(C)=O)C=CC(C)(O)C(=O)C(C)C/C=C/C3C1O (stereo not drawn)	15100 nM (inactive)	5550						
C=C1C(=O)O[C@H]2/C=C(/C)C3=CC(=O)[C@@](C)(C[C@@H](OC(=O)/C(C)=C\C)C12)O3 (stereo partly drawn)			649 nM (active)	13200 nM (inactive)	1210 nM (inactive)	1290 nM (inactive)	769 nM (active)	387 nM (active)
